Results reported in US20240351986A1, “UREA COMPOUND CONTAINING 2-HETEROAROMATIC RING SUBSTITUTION, PREPARATION METHOD THEREFOR AND USE THEREOF” (SHANGHAI INSTITUTE OF MATERIA MEDICA, CHINESE ACADEMY OF …, priority 2021, published 2024).

Target: T1, Recombinant human CDK9/cyclin T1 (Homo sapiens, UniProt P50750)
T1 construct: purchased Carna bioscience 04-110
Assay: CDK9 enzyme inhibitory activity (ADP-Glo kinase assay)
Type: biochemical
Conditions: CDK9 enzyme activity, average of two independent repeats; for inhibition at 0.01 µM: compound 10 nM, read-out: Inhibition rate at different concentrations (%) 10 nM; for inhibition at 0.1 µM: compound 100 nM, read-out: Inhibition rate at different concentrations (%) 100 nM
Protocol: Experimental method: Recombinant human CDK9/cyclin T1 (Carna bioscience, Cat #04-110) was diluted with dilution buffer (20 mM Tris HCl (pH 7.5), 0.02% Triton X-100, 0.01% BSA, 2 mM DTT, 0.5 mM Na3VO4, 10% Glycerol) to […], the substrates CDK7/9 tide (ThermoFisher, Cat #PV5090) and ATP (sigmaaldrich, Cat #A1852) were diluted with assay buffer (25 mM Tris HCl (pH7.5), 10 mM MgCl2, 0.5 mM EGTA (pH 8), 0.5 mM Na3VO4, 5 mMb-glycerol phosphate, 0.1% Triton X-100, 2.5 mM DTT) to final concentrations of 100 μM and […] respectively, aliquot and set aside. 2 μl of diluted recombinant human CDK9/cyclin T1, 1 μl of test compound, and 2 μl of diluted substrate CDK7/9 tide containing ATP were added to the 384-well plate. […] The positive control was the well in which enzyme and substrate were co-incubated, and the negative control was the well in which dilution buffer and substrate were co-incubated. The inhibition rate was calculated according to the following formula.

T1 sequence (P50750 whole entry): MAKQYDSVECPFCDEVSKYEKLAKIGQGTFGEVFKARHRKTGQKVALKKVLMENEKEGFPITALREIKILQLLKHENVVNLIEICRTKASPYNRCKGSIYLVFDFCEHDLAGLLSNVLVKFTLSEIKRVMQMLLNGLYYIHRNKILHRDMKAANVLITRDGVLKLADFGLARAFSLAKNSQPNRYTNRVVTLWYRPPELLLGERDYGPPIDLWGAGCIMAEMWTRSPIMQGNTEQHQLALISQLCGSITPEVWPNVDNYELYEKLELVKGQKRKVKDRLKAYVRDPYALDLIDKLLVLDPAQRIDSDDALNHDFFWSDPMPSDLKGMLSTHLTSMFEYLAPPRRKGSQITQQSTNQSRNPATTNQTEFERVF
T1 sequence (O60563 whole entry partner): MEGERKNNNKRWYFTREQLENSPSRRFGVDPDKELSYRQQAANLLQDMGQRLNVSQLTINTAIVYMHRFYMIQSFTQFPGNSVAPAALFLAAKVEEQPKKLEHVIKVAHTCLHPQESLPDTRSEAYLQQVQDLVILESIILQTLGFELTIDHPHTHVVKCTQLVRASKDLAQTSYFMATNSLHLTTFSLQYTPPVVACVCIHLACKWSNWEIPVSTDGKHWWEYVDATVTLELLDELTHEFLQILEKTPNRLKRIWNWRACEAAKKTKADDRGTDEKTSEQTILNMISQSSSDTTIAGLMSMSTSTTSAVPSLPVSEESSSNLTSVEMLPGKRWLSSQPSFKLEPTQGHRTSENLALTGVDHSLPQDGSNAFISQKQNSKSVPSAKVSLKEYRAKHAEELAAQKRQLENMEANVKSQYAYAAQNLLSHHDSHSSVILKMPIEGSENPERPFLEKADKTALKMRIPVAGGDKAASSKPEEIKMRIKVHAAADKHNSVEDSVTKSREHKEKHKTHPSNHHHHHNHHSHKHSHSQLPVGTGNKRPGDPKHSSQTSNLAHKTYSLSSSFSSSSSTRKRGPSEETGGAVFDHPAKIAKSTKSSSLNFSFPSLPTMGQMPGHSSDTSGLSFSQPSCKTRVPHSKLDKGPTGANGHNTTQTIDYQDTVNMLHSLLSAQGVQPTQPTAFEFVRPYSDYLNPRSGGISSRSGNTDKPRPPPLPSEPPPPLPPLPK

inhibition at 0.01 µM [%]	inhibition at 0.1 µM [%]	Structure (SMILES)
63	92	CC(=O)N[C@H]1CC[C@H](NC(=O)Nc2cc(-c3cnn4c3CC(C)(C)C4)c(Cl)cn2)C1 (stereo in doubt) [Example 74, N-((1S,3S)-3-(3-(5-chloro-4-(5,5-dimethyl-5,6-dihydro-4H-pyrrolo[1,2-b]pyrazol-3-yl)pyridin-2-yl)ureido)cyclopentyl)acetamide]
48.5	97.3	COc1cc(F)ccc1-c1ccnc(NC(=O)NC2CCC(NC(=O)OC(C)(C)C)CC2)c1 (stereo not drawn) [Example 1, tert-butyl((1r,4r)-4-(3-(4-(4-fluoro-2-methoxyphenyl)pyridin-2-yl)ureido)cyclohexyl) carbamate]
45.1	93.2	COc1cc(F)ccc1-c1ccnc(NC(=O)NC2CCC(NC(C)=O)CC2)c1 (stereo not drawn) [Example 4, N-((1r,4r)-4-(3-(4-(4-fluoro-2-methoxyphenyl)pyridin-2-yl)ureido)cyclohexyl)acetamide]
46.2	88.2	COc1cc(F)c(F)cc1-c1ccnc(NC(=O)NC2CCC(N)CC2)c1 (stereo not drawn) [Example 5, 1-((1r,4r)-4-aminocyclohexyl)-3-(4-(4,5-difluoro-2-methoxyphenyl)pyridin-2-yl)urea]
32	74.1	COc1cc(-c2ccnc(NC(=O)NC3CCC(N)CC3)c2)ccc1F (stereo not drawn) [Example 6, 1-((1r,4r)-4-aminocyclohexyl)-3-(4-(4-fluoro-3-methoxyphenyl)pyridin-2-yl)urea]
34.3	81.1	COc1cc(-c2ccnc(NC(=O)NC3CCC(N)CC3)c2)c(F)cc1F (stereo not drawn) [Example 7, 1-((1r,4r)-4-aminocyclohexyl)-3-(4-(2,4-difluoro-5-methoxyphenyl)pyridine-2-yl)urea]
23.1	61.3	NC1CCC(NC(=O)Nc2cc(-c3ccc(F)c4ccoc34)ccn2)CC1 (stereo not drawn) [Example 8, 1-((1r, 4r)-4-aminocyclohexyl)-3-(4-(4-fluoro-benzofuran-7-yl)pyridin-2-yl) urea]
23	55.1	CC(C)c1c2cc(-c3ccnc(NC(=O)NC4CCC(N)CC4)c3)ccc2nn1C (stereo not drawn) [Example 9, 1-((1r,4r)-4-aminocyclohexyl)-3-(4-(3-isopropyl-2-methyl-2H-indazol-5-yl)pyridin-2-yl)urea]
-12.6	94.6	NC1CCC(NC(=O)Nc2cc(-c3ccc(F)cc3Cl)ccn2)CC1 (stereo not drawn) [Example 10, 1-((1r,4r)-4-aminocyclohexyl)-3-(4-(2-chloro-4-fluorophenyl)pyridin-2-yl) urea]
24.7	93.4	COCCNC1CCC(NC(=O)Nc2cc(-c3ccc(F)cc3Cl)ccn2)CC1 (stereo not drawn) [Example 11, 1-(4-(2-chloro-4-fluorophenyl)pyridin-2-yl)-3-((1r,4r)-4-((2-methoxyethyl)amino)cyclohexyl)urea]
19.2	69.1	NC1CCC(NC(=O)Nc2cc(-c3ccc(F)cc3OC(F)(F)F)ccn2)CC1 (stereo not drawn) [Example 12, 1-((1r,4r)-4-aminocyclohexyl)-3-(4-(4-fluoro-2-trifluoromethoxyphenyl)pyridin-2-yl) urea]
-17.5	72.3	Cn1cc(-c2ccnc(NC(=O)NC3CCC(N)CC3)c2)cn1 (stereo not drawn) [Example 13, 1-((1r,4r)-4-aminocyclohexyl)-3-(4-(1-methyl-1H-pyrazol-4-yl)pyridin-2-yl) urea]
-7.6	72.3	COCCNC1CCC(NC(=O)Nc2cc(-c3cnn(C)c3)ccn2)CC1 (stereo not drawn) [Example 14, 1-((1r,4r)-4-((2-methoxyethyl)amino)cyclohexyl)-3-(4-(1-methyl-1H-pyrazol-4-yl)pyridine-2-yl) urea]
51.1	91.5	CC1(C)Cc2c(-c3ccnc(NC(=O)NC4CCC(N)CC4)c3)cnn2C1 (stereo not drawn) [Example 15, 1-((1r,4r)-4-aminocyclohexyl)-3-(4-(5,5-dimethyl-5,6-dihydro-4H-pyrrole [1,2-b]pyrazole-3-yl)pyridin-2-yl) urea]
72	95.7	CC(=O)NC1CCC(NC(=O)Nc2cc(-c3cnn4c3CC(C)(C)C4)ccn2)CC1 (stereo not drawn) [Example 16, 1-((1r,4r)-4-(3-(4-(5,5-dimethyl-5,6-dihydro-4H-pyrrolo[1,2-b]pyrazol-3-yl)pyridin-2-yl)ureido)cyclohexyl)acetamide]
68.2	90.2	COCCNC1CCC(NC(=O)Nc2cc(-c3cnn4c3CC(C)(C)C4)ccn2)CC1 (stereo not drawn) [Example 17, 1-(4-(5,5-dimethyl-5,6-dihydro-4H-pyrrolo[1,2-b]pyrazol-3-yl)pyridin-2-yl)-3-((1r,4r)-4-((2-methoxyethyl)amino)cyclohexyl)urea]
84	86	COc1cc(F)ccc1-c1cc(NC(=O)NC2CCC(N)CC2)ncc1Cl (stereo not drawn) [Example 18, 1-((1r,4r)-4-aminocyclohexyl)-3-(5-chloro-4-(4-fluoro-2-methoxyphenyl)pyridin-2-yl)urea]
57.1	87.4	COCCNC1CCC(NC(=O)Nc2cc(-c3ccc(F)cc3OC)c(Cl)cn2)CC1 (stereo not drawn) [Example 19, 1-(5-chloro-4-(4-fluoro-2-methoxyphenyl)pyridin-2-yl)-3-((1r,4r)-4-((2-methoxyethyl)amino)cyclohexyl)urea]
38.9	88.3	COc1cc(F)ccc1-c1cc(NC(=O)NC2CCC(NCCO)CC2)ncc1Cl (stereo not drawn) [Example 20, 1-(5-chloro-4-(4-fluoro-2-methoxyphenyl)pyridin-2-yl)-3-((1r,4r)-4-((2-hydroxyethyl)amino)cyclohexyl)urea]
45.2	91	COCC(C)NC1CCC(NC(=O)Nc2cc(-c3ccc(F)cc3OC)c(Cl)cn2)CC1 (stereo not drawn) [Example 21, 1-(5-chloro-4-(4-fluoro-2-methoxyphenyl)pyridin-2-yl)-3-((1r,4r)-4-((1-methoxypropan-2-yl)amino)cyclohexyl)urea]
62.9	93.5	COc1cc(F)ccc1-c1cc(NC(=O)NC2CCC(NC(C)=O)CC2)ncc1Cl (stereo not drawn) [Example 22, N-((1r,4r)-4-(3-(5-chloro-4-(4-fluoro-2-methoxyphenyl)pyridin-2-yl)ureido)cyclohexyl)acetamide]
37.2	87.4	COc1cc(F)ccc1-c1cc(NC(=O)NC2CCC(NC(C)C)CC2)ncc1Cl (stereo not drawn) [Example 23, 1-(5-chloro-4-(4-fluoro-2-methoxyphenyl)pyridin-2-yl)-3-((1r,4r)-4-(isopropylamino)cyclohexyl)urea]
37.8	73.1	COc1cc(F)ccc1-c1cc(NC(=O)NC2CCC(NC3CC3)CC2)ncc1Cl (stereo not drawn) [Example 24, 1-(5-chloro-4-(4-fluoro-2-methoxyphenyl)pyridin-2-yl)-3-((1r,4r)-4-(cyclopropylamino)cyclohexyl)urea]
28.7	61.2	COc1cc(F)ccc1-c1cc(NC(=O)NC2CCC(NC3CCOC3)CC2)ncc1Cl (stereo not drawn) [Example 25, 1-(5-chloro-4-(4-fluoro-2-methoxyphenyl)pyridin-2-yl)-3-((1r,4r)-4-((tetrahydrofuran-3-yl)amino)cyclohexyl)urea]
39.3	82.5	COc1cc(F)ccc1-c1cc(NC(=O)NC2CCC(NCCC(F)(F)F)CC2)ncc1Cl (stereo not drawn) [Example 26, 1-(5-chloro-4-(4-fluoro-2-methoxyphenyl)pyridin-2-yl)-3-((1r,4r)-4-((3,3,3-trifluoropropyl)amino)cyclohexyl)urea]
44.2	78.4	COc1cc(F)ccc1-c1cc(NC(=O)NC2CCC(NCCN(C)C)CC2)ncc1Cl (stereo not drawn) [Example 27, 1-(5-chloro-4-(4-fluoro-2-methoxyphenyl)pyridin-2-yl)-3-((1r,4r)-4-((2-(dimethylamino)ethyl)amino)cyclohexyl)urea]
29.5	84.3	COc1cc(F)ccc1-c1cc(NC(=O)NC2CCC(NC(=O)CN(C)C)CC2)ncc1Cl (stereo not drawn) [Example 28, N-((1r,4r)-4-(3-(5-chloro-4-(4-fluoro-2-methoxyphenyl)pyridin-2-yl)ureido)cyclohexyl)-2-(dimethylamino)acetamide]
19.4	57	COCCNC1CCC(NC(=O)Nc2cc(-c3ccc(F)cc3OC)c(C)cn2)CC1 (stereo not drawn) [Example 29, 1-(4-(4-fluoro-2-methoxyphenyl)-5-methylpyridin-2-yl)-3-((1r,4r)-4-((2-methoxyethyl)amino)cyclohexyl) urea]
23.1	55.3	COc1cc(F)ccc1-c1cc(NC(=O)NC2CCC(NC(C)=O)CC2)ncc1F (stereo not drawn) [Example 30, N-((1r,4r)-4-(3-(5-fluoro-4-(4-fluoro-2-methoxyphenyl)pyridin-2-yl)ureido)cyclohexyl)acetamide]
20.7	51.3	COc1cc(F)ccc1-c1cc(NC(=O)NC2CCC(NC(C)=O)CC2)ncc1C (stereo not drawn) [Example 31, N-((1r,4r)-4-(3-(5-methyl-4-(4-fluoro-2-methoxyphenyl)pyridin-2-yl)ureido)cyclohexyl)acetamide]
